# Like-named read-outs stand apart in the source and are kept apart here.
# Columns and labels:
# [1] = tested on: phospho-ERK in MIA PaCa2 or H358 cells; experiment: Phospho-ERK assay (AlphaLisa); type: cell-based; details: MIA PaCa2 or H358 cells, compound incubated 1.5 hours, read-out: IC50 (p-ERK)
# SHP2 (full length) = biological target: T1, SHP2 (full length) (Homo sapiens, UniProt Q06124); experiment: Phosphatase assay (PTPase assay) with DiFMUP substrate; type: biochemical; details: SHP2 activated with SHP2 activating peptide; DiFMUP 80 μM, 2 hours; fluorescence; read-out: IC50 (PTPase aS say)
# T1 construct: SHP2 (full length, diluted to 100 pM final concentration in reaction buffer, BPS bioscience, US); purchased BPS bioscience, US
# T1 sequence (Q06124 1-593): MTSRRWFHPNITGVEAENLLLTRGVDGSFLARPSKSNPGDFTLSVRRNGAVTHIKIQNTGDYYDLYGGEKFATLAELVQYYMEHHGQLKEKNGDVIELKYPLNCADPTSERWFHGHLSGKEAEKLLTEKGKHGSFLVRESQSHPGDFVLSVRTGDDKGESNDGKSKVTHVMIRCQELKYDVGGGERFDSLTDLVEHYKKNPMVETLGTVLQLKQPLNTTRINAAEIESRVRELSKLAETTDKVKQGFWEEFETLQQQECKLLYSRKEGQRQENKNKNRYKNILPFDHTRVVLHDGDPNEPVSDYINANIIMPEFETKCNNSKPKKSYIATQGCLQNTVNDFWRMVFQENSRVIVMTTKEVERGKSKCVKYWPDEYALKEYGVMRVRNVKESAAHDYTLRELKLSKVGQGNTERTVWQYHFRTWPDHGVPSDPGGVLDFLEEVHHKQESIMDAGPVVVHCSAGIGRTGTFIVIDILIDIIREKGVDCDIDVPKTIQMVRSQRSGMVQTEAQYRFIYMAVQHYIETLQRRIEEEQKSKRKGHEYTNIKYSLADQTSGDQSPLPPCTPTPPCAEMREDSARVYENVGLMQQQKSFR
SMILES,IC50 ([1]; 1.5 h),IC50 (SHP2 (full length)),IC50 [1]
Cn1c(N2CCN(CCN)CC2)nc(N)c(-c2cccc(Cl)c2Cl)c1=O [Example 195],> 1500 nM,> 100 nM,
"C[C@@H]1OCC2(CCN(c3cnc(Sc4ccc5ncn(CC6CCOC6)c(=O)c5c4Cl)cn3)CC2)[C@@H]1N (stereo partly drawn) [Example 61, 6-((5-((3S,4S)-4-amino-3-methyl-2-oxa-8-azaspiro[4.5]decan-8-yl)pyrazin-2-yl)thio)-5-chloro-3-((tetrahydrofuran-3-yl)methyl)quinazolin-4(3H)-one]",< 45 nM,< 3 nM,
"Cn1c(N2CCN(CC(N)Cc3cccnc3)CC2)nc(N)c(Sc2cccc(Cl)c2Cl)c1=O (stereo not shown) [Example 188, 6-amino-2-(4-(2-amino-3-(pyridin-3-yl)propyl)piperazin-1-yl)-5-((2,3-dichlorophenyl)thio)-3-methylpyrimidin-4(3H)-one]",> 1500 nM,> 100 nM,
"C[C@@H]1OCC2(CCN(c3cnc(Sc4cccc(S(N)(=O)=O)c4Cl)cn3)CC2)[C@@H]1N [Example 9, 3-((5-((3S,4S)-4-amino-3-methyl-2-oxa-8-azaspiro[4.5]decan-8-yl)pyrazin-2-yl)thio)-2-chlorobenzenesulfonamide]",< 45 nM,< 3 nM,
"Cn1c(N2CCN(CCN)CC2)nc(N)c(Sc2ccnc(Cl)c2Cl)c1=O [Example 193, 6-amino-2-(4-(2-aminoethyl)piperazin-1-yl)-5-((2,3-dichloropyridin-4-yl)thio)-3-methylpyrimidin-4(3H)-one]",> 1500 nM,> 100 nM,
"C[C@@H]1OCC2(CCN(c3cnc(Sc4ccc5ncn(CC(C)(C)F)c(=O)c5c4Cl)cn3)CC2)[C@@H]1N [Example 139, 6-((5-((3S,4S)-4-amino-3-methyl-2-oxa-8-azaspiro[4.5]decan-8-yl)pyrazin-2-yl)thio)-5-chloro-3-(2-fluoro-2-methylpropyl)quinazolin-4(3H)-one]",45 to 1500 nM,3 to 100 nM,
"Cn1c(N2CCN(CC(N)c3ccccc3)CC2)nc(N)c(Sc2cccc(Cl)c2Cl)c1=O (stereo not shown) [Example 190, 6-amino-2-(4-(2-amino-2-phenylethyl)piperazin-1-yl)-5-((2,3-dichlorophenyl)thio)-3-methylpyrimidin-4(3H)-one]",> 1500 nM,> 100 nM,
C[C@@H]1OCC2(CCN(c3cnc(Sc4ccc5c(nc(OC6CCOC6)n5C)c4Cl)cn3)CC2)[C@@H]1N (stereo partly shown) [Example 130],< 45 nM,< 3 nM,
"COc1ccc(C)cc1Cn1cnc2ccc(Sc3cnc(N4CCC5(CC4)CO[C@@H](C)[C@H]5N)cn3)c(Cl)c2c1=O [Example 93, 6-((5-((3S,4S)-4-amino-3-methyl-2-oxa-8-azaspiro[4.5]decan-8-yl)pyrazin-2-yl)thio)-5-chloro-3-(2-methoxy-5-methylbenzyl)quinazolin-4(3H)-one]",< 45 nM,< 3 nM,
C[C@@H]1OCC2(CCN(c3cnc(Sc4ccc5nc(Oc6cccnc6)[nH]c5c4Cl)cn3)CC2)[C@@H]1N [Example 128],< 45 nM,< 3 nM,
"C[C@@H]1OCC2(CCN(c3cnc(Sc4ccc5ncn(Cc6cncnc6)c(=O)c5c4Cl)cn3)CC2)[C@@H]1N [Example 46, 6-((5-((3S,4S)-4-amino-3-methyl-2-oxa-8-azaspiro[4.5]decan-8-yl)pyrazin-2-yl)thio)-5-chloro-3-(pyrimidin-5-ylmethyl)quinazolin-4(3H)-one]",< 45 nM,3 to 100 nM,
"COCCn1cnc2ccc(Sc3cnc(N4CCC5(CC4)Cc4ccc(OC)cc4[C@H]5N)cn3)c(Cl)c2c1=O [Example 158, 6-[5-[(1S)-1-amino-6-methoxy-spiro[indane-2,4′-piperidin]-1′-yl]pyrazin-2-yl]sulfanyl-5-chloro-3-(2-methoxyethyl)quinazolin-4-one]",< 45 nM,< 3 nM,
"COCCn1cnc2ccc(Sc3cnc(N4CCC5(CC4)Cc4nc(Cl)sc4[C@@H]5N)cn3)c(Cl)c2c1=O [Example 157, 6-[5-[(6R)-6-amino-2-chloro-spiro[4,6-dihydrocyclopenta[d]thiazole-5,4′-piperidin]-1′-yl]pyrazin-2-yl]sulfanyl-5-chloro-3-(2-methoxyethyl)quinazolin-4-one]",45 to 1500 nM,3 to 100 nM,
"C[C@@H]1OCC2(CCN(c3cnc(Sc4ccc5c(c4Cl)C(=O)N(Cc4ccccc4)CC5)cn3)CC2)[C@@H]1N [Example 85, 7-((5-((3S,4S)-4-amino-3-methyl-2-oxa-8-azaspiro[4.5]decan-8-yl)pyrazin-2-yl)thio)-2-benzyl-8-chloro-3,4-dihydroisoquinolin-1(2H)-one]",> 1500 nM,3 to 100 nM,
"COCCn1cnc2ccc(Sc3cnc(N4CCC5(CC4)Cc4ncccc4[C@H]5N)c(CO)n3)c(Cl)c2c1=O [Example 168, (S)-6-((5-(5-amino-5,7-dihydrospiro[cyclopenta[b]pyridine-6,4′-piperidin]-1′-yl)-6-(hydroxymethyl)pyrazin-2-yl)thio)-5-chloro-3-(2-methoxyethyl)quinazolin-4(3H)-one]",< 45 nM,< 3 nM,
"C[C@@H]1OCC2(CCN(c3cnc(Sc4ccc5ncn(Cc6ccncc6)c(=O)c5c4Cl)cn3)CC2)[C@@H]1N [Example 39, 6-((5-((3S,4S)-4-amino-3-methyl-2-oxa-8-azaspiro[4.5]decan-8-yl)pyrazin-2-yl)thio)-5-chloro-3-(pyridin-4-ylmethyl)quinazolin-4(3H)-one]",45 to 1500 nM,3 to 100 nM,
"C[C@@H]1OCC2(CCN(c3cnc(Sc4ccc5ncn(Cc6cccc(F)c6)c(=O)c5c4Cl)cn3)CC2)[C@@H]1N [Example 33, 6-((5-((3S,4S)-4-amino-3-methyl-2-oxa-8-azaspiro[4.5]decan-8-yl)pyrazin-2-yl)thio)-5-chloro-3-(3-fluorobenzyl)quinazolin-4(3H)-one]",45 to 1500 nM,< 3 nM,
"COCCn1cnc2ccc(Sc3n[nH]c4nc(N5CCC6(CC5)CO[C@@H](C)[C@H]6N)cnc34)c(Cl)c2c1=O [Example 178, 6-((6-((3S,4S)-4-amino-3-methyl-2-oxa-8-azaspiro[4.5]decan-8-yl)-1H-pyrazolo[3,4-b]pyrazin-3-yl)thio)-5-chloro-3-(2-methoxyethyl)quinazolin-4(3H)-one]",,< 3 nM,< 45 nM
"N[C@@H]1c2cccnc2CC12CCN(c1cnc(Sc3ccc4ncn(CC5CCOC5)c(=O)c4c3Cl)cn1)CC2 (stereo partly drawn) [Example 107, 6-((5-((S)-5-amino-5,7-dihydrospiro[yclopenta[b]pyridine-6,4′-piperidin]-1′-yl)pyrazin-2-yl]thio)-5-chloro-3-((tetrahydrofuran-3-yl)methyl)quinazolin-4(3H)-one]",< 45 nM,< 3 nM,
"Cn1c(N2CCN(CCN)CC2)nc(N)c(Sc2cccc(Cl)c2Cl)c1=O [Example 194, 6-amino-2-(4-(2-aminoethyl)piperazin-1-yl)-5-((2,3-dichlorophenyl)thio)-3-methylpyrimidin-4(3H)-one]",> 1500 nM,> 100 nM,
"Cn1cc2c(Cl)c(Sc3cnc(N4CCC(C)(N)CC4)cn3)ccc2n1 [Example 25, 1-(5-((4-chloro-2-methyl-2H-indazol-5-yl)thio)pyrazin-2-yl)-4-methylpiperidin-4-amine]",45 to 1500 nM,3 to 100 nM,
"C[C@@H]1OCC2(CCN(c3cnc(Sc4ccc5ncn(C6CCCCC6)c(=O)c5c4Cl)cn3)CC2)[C@@H]1N [Example 91, 6-((5-((3S,4S)-4-amino-3-methyl-2-oxa-8-azaspiro[4.5]decan-8-yl)pyrazin-2-yl)thio)-5-chloro-3-cyclohexylquinazolin-4(3H)-one]",45 to 1500 nM,3 to 100 nM,
"C[C@@H]1OCC2(CCN(c3cnc(Sc4ccc5ncn(CCN(C)C)c(=O)c5c4Cl)cn3)CC2)[C@@H]1N [Example 67, 6-((5-((3S,4S)-4-amino-3-methyl-2-oxa-8-azaspiro[4.5]decan-8-yl)pyrazin-2-yl)thio)-5-chloro-3-(2-(dimethylamino)ethyl)quinazolin-4(3H)-one]",45 to 1500 nM,3 to 100 nM,
"C[C@@H]1OCC2(CCN(c3cnc(Sc4ccc5ncn(CCCN(C)C)c(=O)c5c4Cl)cn3)CC2)[C@@H]1N [Example 68, 6-((5-((3S,4S)-4-amino-3-methyl-2-oxa-8-azaspiro[4.5]decan-8-yl)pyrazin-2-yl)thio)-5-chloro-3-(3-(dimethylamino)propyl)quinazolin-4(3H)-one]",45 to 1500 nM,3 to 100 nM,
"Cc1nc2ccc(Sc3cnc(N4CCC(C)(CN)CC4)cn3)c(Cl)c2c(=O)[nH]1 [Example 22, 6-((5-(4-(aminomethyl)-4-methylpiperidin-1-yl)pyrazin-2-yl)thio)-5-chloro-2-methylquinazolin-4(3H)-one]",45 to 1500 nM,3 to 100 nM,
"C[C@@H]1OCC2(CCN(c3cnc(Sc4ccc5ncn(CCC(N)=O)c(=O)c5c4Cl)cn3)CC2)[C@@H]1N [Example 98, 3-(6-((5-((3S,4S)-4-amino-3-methyl-2-oxa-8-azaspiro[4.5]decan-8-yl)pyrazin-2-yl)thio)-5-chloro-4-oxoquinazolin-3(4H)-yl)propanamide]",45 to 1500 nM,3 to 100 nM,

# — US12029739B2, “SHP2 inhibitor and use thereof” (KANAPH THERAPEUTICS INC., priority 2021, dated 2024)
